Test results: patent US9422308B2, “Derivatives of docosahexaenoylethanolamide and uses thereof” (The United States of America, as represented by the …, priority 2012, dated 2016)
“And” between values parts separate entries of the source, which are not always exact repeats. Equal entries are not always repeated. Where two headings read alike, the source gives them in different places.

Assay: pharmacokinetics, plasma and brain, after IP dose in mice
Format: in vivo
Conditions: male C57BL/6 mice; for concentration at 0.083 hr / concentration at 0.25 hr / concentration at 0.5 hr / concentration at 1 hr / concentration at 2 hr / concentration at 3 hr / concentration at 4 hr / concentration at 8 hr: male, C57BL/6, mouse, ip, 50 mg/kg; for half-life: read-out: Terminal t1/2 (converted)
Method: Each time point is […], with 11 time points=33 animals. Each time point was done in triplicate (N=3). The brain and plasma from each animal was analyzed.
Formulation preparation: • IP: 5% DMAC+5% Solutol HS15+90% Saline • 50 mg/kg, 10 mL/kg
Analytical method: • Instrument: LCMSMS-6 (Agilent 6410, triple quadrupole) • Matrix: Mouse plasma and brain homogenate • Analyte(s): NCGC00248435-03 • Internal standard(s): Diclofenac • MS conditions: Positive, ESI • MRM detection • NCGC00248435-03: [M+H]+m/z 400.3→72.2 • Diclofenac: [M+H]+m/z 296.0→214.0
(§1) For plasma samples: An aliquot of 30 μL plasma sample was added with 100 μL ACN (including Diclofenac, 50 ng/mL) for protein precipitation. The mixture was vortexed for 2 min and centrifuged at 12000 rpm for 5 min. The 8 μL supernatant was injected into LC-MS/MS for analysis.
as §1, with “For brain” for “For plasma”, “samples: Brain sample was homogenized for 2 min with 3 volumes (v/w) of homogenizing solution.” for “samples:”, “μL brain homogenate” for “μL plasma”
The IP dosing solution was prepared in 5% DMAC+5% SolutolHS15+90% Saline. Brain was homogenized with 3 volumes (v/w) of PBS (pH7.4) and then analyzed with LC-MS/MS. The Brain concentration was corrected with a dilution factor of 4 as following: Brain concentration=Brain homogenate conc.×4, assuming 1 g wet brain equals to 1 mL. BQL=Below quantifiable limit of 1 ng/mL for NCGC00248435-03 in male C57BL/6 plasma and brain homogenate samples. NA=Not available.

clinical observation post dose (IP 50 mg/kg, all animals): Slight mobility reduction
duration of mobility reduction post dose (IP 50 mg/kg, all animals): 1 h
brain concentration Dose Normalized Mean (brain, 0.083 hr, IP 50 mg/kg): 0.024
brain Concentration Individual (brain, 0.083 hr, IP 50 mg/kg, 3 animals, listed as NCGC00248435-03, 50 mg/kg): 310 ng/g and 551 ng/g
brain concentration Dose Normalized Mean (brain, 0.25 hr, IP 50 mg/kg): 0.054
brain Concentration Individual (brain, 0.25 hr, IP 50 mg/kg, 3 animals, listed as NCGC00248435-03, 50 mg/kg): 1081 ng/g and 1330 ng/g
brain concentration Dose Normalized Mean (brain, 0.5 hr, IP 50 mg/kg): 0.236
brain Concentration Individual (brain, 0.5 hr, IP 50 mg/kg, 3 animals, listed as NCGC00248435-03, 50 mg/kg): 5013 ng/g and 3992 ng/g
brain concentration Dose Normalized Mean (brain, 1 hr, IP 50 mg/kg): 0.152
brain Concentration Individual (brain, 1 hr, IP 50 mg/kg, 3 animals, listed as NCGC00248435-03, 50 mg/kg): 2086 ng/g and 3367 ng/g
brain concentration Dose Normalized Mean (brain, 2 hr, IP 50 mg/kg): 0.089
brain Concentration Individual (brain, 2 hr, IP 50 mg/kg, 3 animals, listed as NCGC00248435-03, 50 mg/kg): 2463 ng/g and 1494 ng/g
brain concentration Dose Normalized Mean (brain, 3 hr, IP 50 mg/kg): 0.075
brain Concentration Individual (brain, 3 hr, IP 50 mg/kg, 3 animals, listed as NCGC00248435-03, 50 mg/kg): 1410 ng/g and 1152 ng/g
brain concentration Dose Normalized Mean (brain, 4 hr, IP 50 mg/kg): 0.017
brain Concentration Individual (brain, 4 hr, IP 50 mg/kg, 3 animals, listed as NCGC00248435-03, 50 mg/kg): 234 ng/g and 585 ng/g and 179 ng/g
brain concentration Dose Normalized Mean (brain, 8 hr, IP 50 mg/kg): 0.001
brain Concentration Individual (brain, 8 hr, IP 50 mg/kg, 3 animals, listed as NCGC00248435-03, 50 mg/kg): 13.5 ng/g
AUCbrain(AUClast) (brain, IP 50 mg/kg): 8.458 µg·h/mL
concentration at 0.083 hr (brain, brain, 0.083 hr, 3 animals, read-out: brain Concentration Individual): 554 ng/g
concentration at 0.083 hr (brain, brain, 0.083 hr, read-out: brain concentration Mean): 472 ng/g and 1.18 µM
concentration at 0.25 hr (brain, brain, 0.25 hr, 3 animals, read-out: brain Concentration Individual): 853 ng/g
concentration at 0.25 hr (brain, brain, 0.25 hr, read-out: brain concentration Mean): 1090 ng/g and 2.72 µM
concentration at 0.5 hr (brain, brain, 0.5 hr, 3 animals, read-out: brain Concentration Individual): 5110 ng/g
concentration at 0.5 hr (brain, brain, 0.5 hr, read-out: brain concentration Mean): 4710 ng/g and 11.8 µM
concentration at 1 hr (brain, brain, 1 hr, 3 animals, read-out: brain Concentration Individual): 3650 ng/g
concentration at 1 hr (brain, brain, 1 hr, read-out: brain concentration Mean): 3040 ng/g and 7.59 µM
concentration at 2 hr (brain, brain, 2 hr, 3 animals, read-out: brain Concentration Individual): 1380 ng/g
concentration at 2 hr (brain, brain, 2 hr, read-out: brain concentration Mean): 1780 ng/g and 4.45 µM
concentration at 3 hr (brain, brain, 3 hr, 3 animals, read-out: brain Concentration Individual): 1930 ng/g
concentration at 3 hr (brain, brain, 3 hr, read-out: brain concentration Mean): 1500 ng/g and 3.75 µM
concentration at 4 hr (brain, brain, 4 hr, read-out: brain concentration Mean): 333 ng/g and 833 nM
concentration at 8 hr (brain, brain, 8 hr, 3 animals, read-out: brain Concentration Individual): 8.94 ng/g
concentration at 8 hr (brain, brain, 8 hr, read-out: brain concentration Mean): 12 ng/g and 30 nM
concentration at 0.083 hr (plasma, plasma, 0.083 hr, 3 animals, read-out: plasma Concentration Individual): 2.09 µg/mL
concentration at 0.083 hr (plasma, plasma, 0.083 hr, read-out: plasma concentration Mean): 2620 ng/mL and 6.56 µM
concentration at 0.25 hr (plasma, plasma, 0.25 hr, 3 animals, read-out: plasma Concentration Individual): 6.55 µg/mL
concentration at 0.25 hr (plasma, plasma, 0.25 hr, read-out: plasma concentration Mean): 5100 ng/mL and 12.8 µM
concentration at 0.5 hr (plasma, plasma, 0.5 hr, 3 animals, read-out: plasma Concentration Individual): 5.96 µg/mL
concentration at 0.5 hr (plasma, plasma, 0.5 hr, read-out: plasma concentration Mean): 5790 ng/mL and 14.5 µM
concentration at 1 hr (plasma, plasma, 1 hr, 3 animals, read-out: plasma Concentration Individual): 4.05 µg/mL
concentration at 1 hr (plasma, plasma, 1 hr, read-out: plasma concentration Mean): 3960 ng/mL and 9.91 µM
concentration at 2 hr (plasma, plasma, 2 hr, 3 animals, read-out: plasma Concentration Individual): 1.13 µg/mL
concentration at 2 hr (plasma, plasma, 2 hr, read-out: plasma concentration Mean): 1020 ng/mL and 2.56 µM
concentration at 3 hr (plasma, plasma, 3 hr, 3 animals, read-out: plasma Concentration Individual): 0.321 µg/mL
concentration at 3 hr (plasma, plasma, 3 hr, read-out: plasma concentration Mean): 275 ng/mL and 688 nM
concentration at 4 hr (plasma, plasma, 4 hr, read-out: plasma concentration Mean): 100 ng/mL and 250 nM
concentration at 8 hr (plasma, plasma, 8 hr, 3 animals, read-out: plasma Concentration Individual): 0.00183 µg/mL
concentration at 8 hr (plasma, plasma, 8 hr, read-out: plasma concentration Mean): 2.11 ng/mL and 5 nM
Kp (mouse, brain and plasma, IP 50 mg/kg, read-out: AUCbrain/AUCplasma): 1.05
AUC(0-inf) (mouse, brain, IP 50 mg/kg): 8.47 µg·h/mL
Cmax (mouse, brain, IP 50 mg/kg): 4.71 µg/mL
Tmax (mouse, brain, IP 50 mg/kg): 30 min
half-life (mouse, brain, IP 50 mg/kg): 47.6 min
AUC(0-inf) (mouse, plasma, IP 50 mg/kg): 8.08 µg·h/mL
AUC(0-t) (mouse, plasma, IP 50 mg/kg): 8.08 µg·h/mL
Cmax (mouse, plasma, IP 50 mg/kg): 5.79 µg/mL
Tmax (mouse, plasma, IP 50 mg/kg): 30 min
half-life (mouse, plasma, IP 50 mg/kg): 42.8 min
plasma concentration Dose Normalized Mean (plasma, 0.083 hr, IP 50 mg/kg): 0.131
plasma Concentration Individual (plasma, 0.083 hr, IP 50 mg/kg, 3 animals, listed as NCGC00248435-03, 50 mg/kg): 3.063 µg/mL and 2.707 µg/mL
plasma concentration Dose Normalized Mean (plasma, 0.25 hr, IP 50 mg/kg): 0.255
plasma Concentration Individual (plasma, 0.25 hr, IP 50 mg/kg, 3 animals, listed as NCGC00248435-03, 50 mg/kg): 4.892 µg/mL and 3.849 µg/mL
plasma concentration Dose Normalized Mean (plasma, 0.5 hr, IP 50 mg/kg): 0.290
plasma Concentration Individual (plasma, 0.5 hr, IP 50 mg/kg, 3 animals, listed as NCGC00248435-03, 50 mg/kg): 6.378 µg/mL and 5.036 µg/mL
plasma concentration Dose Normalized Mean (plasma, 1 hr, IP 50 mg/kg): 0.198
plasma Concentration Individual (plasma, 1 hr, IP 50 mg/kg, 3 animals, listed as NCGC00248435-03, 50 mg/kg): 4.574 µg/mL and 3.252 µg/mL
plasma concentration Dose Normalized Mean (plasma, 2 hr, IP 50 mg/kg): 0.051
plasma Concentration Individual (plasma, 2 hr, IP 50 mg/kg, 3 animals, listed as NCGC00248435-03, 50 mg/kg): 1.064 µg/mL and 0.87 µg/mL
plasma concentration Dose Normalized Mean (plasma, 3 hr, IP 50 mg/kg): 0.014
plasma Concentration Individual (plasma, 3 hr, IP 50 mg/kg, 3 animals, listed as NCGC00248435-03, 50 mg/kg): 0.255 µg/mL and 0.249 µg/mL
plasma concentration Dose Normalized Mean (plasma, 4 hr, IP 50 mg/kg): 0.005
plasma Concentration Individual (plasma, 4 hr, IP 50 mg/kg, 3 animals, listed as NCGC00248435-03, 50 mg/kg): 0.0784 µg/mL and 0.148 µg/mL and 0.0729 µg/mL
plasma concentration Dose Normalized Mean (plasma, 8 hr, IP 50 mg/kg): 0.000
plasma Concentration Individual (plasma, 8 hr, IP 50 mg/kg, 3 animals, listed as NCGC00248435-03, 50 mg/kg): 0.00294 µg/mL and 0.00155 µg/mL
SMILES: CC/C=C\C/C=C\C/C=C\C/C=C\C/C=C\C/C=C\CCC(=O)NCC(C)(C)O [Compound 1, (4Z,7Z,10Z,13Z,16Z,19Z)—N-(2-hydroxy-2-methylpropyl)docosa-4,7,10,13,16,19-hexaenamide]
brain concentration Dose Normalized Mean (brain, 12 hr, IP 50 mg/kg): BQL (Below quantifiable limit of 1 ng/mL for NCGC00248435-03 in male C57BL/6 plasma and brain homogenate samples)
brain concentration Mean (brain, 12 hr, IP 50 mg/kg): BQL (Below quantifiable limit of 1 ng/mL for NCGC00248435-03 in male C57BL/6 plasma and brain homogenate samples)
brain Concentration Individual (brain, 12 hr, IP 50 mg/kg, 3 animals): BQL (Below quantifiable limit of 1 ng/mL for NCGC00248435-03 in male C57BL/6 plasma and brain homogenate samples)
brain concentration Dose Normalized Mean (brain, 24 hr, IP 50 mg/kg): BQL (Below quantifiable limit of 1 ng/mL for NCGC00248435-03 in male C57BL/6 plasma and brain homogenate samples)
brain concentration Mean (brain, 24 hr, IP 50 mg/kg): BQL (Below quantifiable limit of 1 ng/mL for NCGC00248435-03 in male C57BL/6 plasma and brain homogenate samples)
brain Concentration Individual (brain, 24 hr, IP 50 mg/kg, 3 animals): BQL (Below quantifiable limit of 1 ng/mL for NCGC00248435-03 in male C57BL/6 plasma and brain homogenate samples)
plasma concentration Dose Normalized Mean (plasma, 12 hr, IP 50 mg/kg): BQL (Below quantifiable limit of 1 ng/mL for NCGC00248435-03 in male C57BL/6 plasma and brain homogenate samples)
plasma concentration Mean (plasma, 12 hr, IP 50 mg/kg): BQL (Below quantifiable limit of 1 ng/mL for NCGC00248435-03 in male C57BL/6 plasma and brain homogenate samples)
plasma Concentration Individual (plasma, 12 hr, IP 50 mg/kg, 3 animals): BQL (Below quantifiable limit of 1 ng/mL for NCGC00248435-03 in male C57BL/6 plasma and brain homogenate samples)
plasma concentration Dose Normalized Mean (plasma, 24 hr, IP 50 mg/kg): BQL (Below quantifiable limit of 1 ng/mL for NCGC00248435-03 in male C57BL/6 plasma and brain homogenate samples)
plasma concentration Mean (plasma, 24 hr, IP 50 mg/kg): BQL (Below quantifiable limit of 1 ng/mL for NCGC00248435-03 in male C57BL/6 plasma and brain homogenate samples)
plasma Concentration Individual (plasma, 24 hr, IP 50 mg/kg, 3 animals): BQL (Below quantifiable limit of 1 ng/mL for NCGC00248435-03 in male C57BL/6 plasma and brain homogenate samples)
